The values below come from US10617679B2, “Deuterated compounds and medical uses thereof” (JINGLUWEIDAI INFORMATION CONSULTING SERVICE (BEIJING) CO. …, priority 2016, dated 2020).

Molecules are shown by their SMILES.

For one data set, the system named is rat formalin model. Nature of the data set: Analgesic effects of intragastric administration in a rat formalin model. Conditions: mean ± SD; for Reaction time for phase I: licking time 0-5 min after formalin; for Reaction time for Phase II: licking time 15-30 min after formalin. Type of data set: in vivo, SD rats. As for the experimental part:
SD rats (male, weight 160-180 g) were randomly divided into groups with 6 rats in each group. After the rats were intragastrically administered different doses separately, they were placed in PVC observation boxes for habituation. After 30 min, the rats were injected subcutaneously with 20 μL of 2.7% formalin solution into the plantar surface of the left hind paws, and quickly put back in the PVC observation boxes for observation. The length of time the rats spent licking the injected-formalin paws at the early response (0-5 min, phase I) and the late response (15-30 min, Phase II) was recorded, and the analgesic activities of the test compounds were evaluated according to the length of time the rats spent licking during the period of observation. The experimental data were expressed as mean±standard deviation. The shorter the licking time, the better the analgesic effect of the compound.

The subject of another data set is blood pressure in rats. In words: Effects on blood pressure in rats. In kind it is in vivo, SD rats. How it is done:
(§1) SD rats (male, weight 160-180 g) were fasted for 12 hours before administration but had free access to drinking water. The rats were randomly divided into groups. They were anesthetized with an intraperitoneal injection of 50-60 mg/kg dose of sodium pentobarbital. Each rat was fixed on the back on the surgical table. The skin was cut from the center of the neck, and an incision of about 2.5 cm was made. The subcutaneous tissue and the median muscle were separated; the trachea was fully exposed; and the endotracheal intubation was performed. The subcutaneous tissue was separated from front to back on the right side; the right common carotid artery, the vagus nerve and the sympathetic nerve were exposed; and the carotid artery cannulation was performed. Finally, the endotracheal tube and the carotid artery cannula were respectively connected to a respiration transducer and a blood pressure transducer, and then connected to a multifunctional physiological recorder. At 30 minutes after surgery, the rats were intragastrically administrated. Heart rate and blood pressure were measured at different time points after administration.

The test system of data set [1] is oxycodone-induced place preference in rats. In words: Inhibition of oxycodone-induced place preference in rats. Conditions: day 10, within 15 minutes. Type of data set: in vivo, SD rats. As for the experimental part: SD rats (male, weight 160-180 g) were placed in conditioned place preference (CPP) training boxes, where the partition door between the boxes was open. Time the rats spent in each of the boxes was recorded within 15 min in order to determine the natural tendency of the rats. The rats were then randomly divided into groups with 10 rats in each group according to the amount of time spent in the white box. The white box was a drug box, and the black box was a box with the absence of the drug. After intragastric administration with a test compound for 40 minutes, the rats were injected subcutaneously with oxycodone (2.5 mg/kg, s.c.) or saline, and immediately placed in the white box or the black box to be trained for 45 minutes, once a day for 9 consecutive days. On the 10th day, the rats were placed in the training boxes with the partition door open. The time the rats spent in the white box was recorded within 15 minutes to evaluate effects on place preference in the rats.

For a further data set, the system named is heart rate in rats. Nature of the data set: Effects on heart rate in rats. Type of data set: in vivo, SD rats. As for the experimental part: as §1
A further data set concerns Wistar rats. In words: Evaluation of subacute toxicity (14 days, intragastric). In kind it is in vivo. Conditions: 40 mg/kg intragastric once a day for 14 days. How it is done: Male Wistar rats were randomly divided into groups with 10 rats in each group and weighed. A certain concentration of a test sample was ground and suspended in a 0.5% sodium carboxymethyl cellulose solution. The sodium carboxymethyl cellulose suspension containing 40 mg/kg of the test compound and a blank sodium carboxymethyl cellulose suspension as a control were intragastrically administered, once a day for 14 consecutive days. After the last administration, the rats were fasted but had free access to drinking water for 12 hours, and then anesthetized. Their blood samples were obtained from the abdominal aortas. According to SOPB093 “Standard Operating Procedures for Serum Preparation” in National Beijing Center for Drug Safety Evaluation and Research, serum was prepared for the determination of blood biochemical and immunological indicators; according to SOPB032 “Preparation of vacuum tubes with EDTA anticoagulation”, EDTA anticoagulation was prepared for the general blood routine tests.

The subject of data set [2] is rat chronic sciatic nerve compression neuralgia model. Nature of the data set: Analgesic effects of intragastric administration in a rat chronic sciatic nerve compression neuralgia model. Type of data set: in vivo, SD rats. Conditions: pain threshold 1 hour after administration. How it is done: SD rats (male, weight 160-180 g) were anesthetized using sodium pentobarbital (40 mg/kg), of which the sciatic nerves were separated in the middle segment of the right hind limbs. In the anterior segment of the sciatic nerve to be bifurcated, the sciatic nerve was separated from the surrounding tissue using a sterile glass hook. Four rings were loosely ligated with sterile chrome gut (No. 4, 0.15 mm in diameter) by an interval of 1 to 2 mm. Topically sprinkled with penicillin powder. The muscle tissue and skin were sutured. The rats were placed in a cage with cork dust. In the sham surgery group, the sciatic nerve was only exposed, and the other treatments were the same as described above. The rats after surgery were placed in a metal cage. […] The weight of the filament was recorded and set to be the threshold (in g). Meanwhile, the number of foot-lifting response to the 10 stimulations of the fiber filaments of different weights was recorded, and the highest threshold was set at 26 g.
5-6 rats in each group were intragastrically administered and the pain thresholds were measured 1 hour after administration. Statistical analysis of the thresholds was performed using non-parametric Wilcoxon 2-Sample Test and Kruskal-Wallis Test, and the data was analyzed with SASS data processing software. Analgesic percent (%)=(pain threshold after drug treatment−pain threshold before drug treatment)/(maximal analgesia threshold−pain threshold before drug treatment)[…].

Where [3] appears, read: 20 mg/kg intragastric, time point 0.
[4] abbreviates: 20 mg/kg intragastric, time point 30.
The mark [5] stands for this setting: 20 mg/kg intragastric, time point 60.
Setting [6] is: 20 mg/kg intragastric, time point 90.
[7] abbreviates: 20 mg/kg intragastric, time point 120.
Setting [8] is: 20 mg/kg intragastric, time point 180.
The mark [9] stands for this setting: 40 mg/kg intragastric, time point 0.
Where [10] appears, read: 40 mg/kg intragastric, time point 30.
Where [11] appears, read: 40 mg/kg intragastric, time point 60.
Setting [12] is: 40 mg/kg intragastric, time point 90.
Setting [13] is: 40 mg/kg intragastric, time point 120.
The mark [14] stands for this setting: 40 mg/kg intragastric, time point 180.

As to `[2H]C([2H])([2H])Oc1c(OC)ccc2c1CN1CCc3cc(OC)c(OC)cc3[C@@H]1C2` [Formula I1, (13a S)-2,3,10-trimethoxy-9-[(trideutero)-methoxy]-6,8,13,13a-tetrahydro-5H-isoquinolino[2,1-b]isoquinoline], in the data set on rat formalin model (20 mg/kg intragastric), the “Reaction time for phase I” value came to 82.4 ± 33.2 s and the “Reaction time for Phase II” value is 194.0 ± 35.7 s. Also, in the data set with rat formalin model (40 mg/kg intragastric), the “Reaction time for phase I” value is 42.6 ± 45.0 s and the “Reaction time for Phase II” value is 92.7 ± 25.1 s.

As for `[2H]C([2H])([2H])Oc1ccc2c(c1OC)CN1CCc3cc(OC)c(OC)cc3[C@@H]1C2` [Formula I2, (13a S)-2,3,9-trimethoxy-10-[(trideutero)-methoxy]-6,8,13,13a-tetrahydro-5H-isoquinolino[2,1-b]isoquinoline], the Blood pressure in the data set on blood pressure in rats (setting [3]) turned out to be 113.1 ± 15.7 mmHg; in the data set on blood pressure in rats (setting [4]), 113.4 ± 17.3 mmHg; with blood pressure in rats (setting [5]) it was 101.5 ± 27.46 mmHg; in the data set with blood pressure in rats (setting [6]), 102.25 ± 21.6 mmHg; with blood pressure in rats (setting [7]), 113.1 ± 14.2 mmHg; in the data set with blood pressure in rats (setting [8]) it was 102.3 ± 7.6 mmHg. Moreover, the Blood pressure in the data set on blood pressure in rats (setting [9]) was found to be 114.6 ± 19.4 mmHg; with blood pressure in rats (setting [10]), 95.5 ± 15.9 mmHg; in the data set with blood pressure in rats (setting [11]) it was 82.5 ± 19.8 mmHg; in the data set with blood pressure in rats (setting [12]), 92.8 ± 18.6 mmHg; in the data set with blood pressure in rats (setting [13]) it was 110.5 ± 15.5 mmHg; in the data set on blood pressure in rats (setting [14]) it was 100.0 ± 17.8 mmHg. The results for the “Time spent in the drug box (Mean ± S)” value in data set [1] (test dose 10 mg/kg intragastric + oxycodone 2.5 mg/kg s.c.) and in data set [1] (test dose 20 mg/kg intragastric + oxycodone 2.5 mg/kg s.c.) were 193.94 ± 44.3 s and 140.59 ± 28.52 s, respectively. The Heart rate is listed as 400.8 ± 32.1 BTM in the data set with heart rate in rats (setting [3]); 378.3 ± 30.3 BTM in the data set with heart rate in rats (setting [4]); 384.6 ± 48.2 BTM in the data set on heart rate in rats (setting [5]); 388.0 ± 21.4 BTM in the data set with heart rate in rats (setting [6]); 402.5 ± 59.3 BTM with heart rate in rats (setting [7]); 407.0 ± 36.5 BTM in the data set on heart rate in rats (setting [8]). The Heart rate stood at 409.2 ± 41.7 BTM in the data set with heart rate in rats (setting [9]); 390.7 ± 41.7 BTM in the data set with heart rate in rats (setting [10]); 319.7 ± 57.2 BTM in the data set on heart rate in rats (setting [11]); 353.8 ± 66.7 BTM with heart rate in rats (setting [12]); 378.0 ± 47.6 BTM in the data set with heart rate in rats (setting [13]); 407.0 ± 42.6 BTM in the data set with heart rate in rats (setting [14]). For the same compound, in the data set on Wistar rats (rat), the ALT was determined as 172.8 ± 37.5 U/L. In the data set on Wistar rats (rat), this compound showed an AST of 195.0 ± 32.1 U/L. Also, in the data set on Wistar rats (result in words), the “histopathological examination of liver” value was “vacuolar degeneration of hepatocytes”. The “plasma ALT and AST versus control group” value in the data set on Wistar rats (result in words) was “significant increase”. Moreover, the Analgesic percent in data set [2] (20 mg/kg intragastric) was determined as 59.00%; in data set [2] (40 mg/kg intragastric), 68.86%. In addition, the “Reaction time for phase I” value with rat formalin model (20 mg/kg intragastric) stood at 82.1 ± 16.3 s; with rat formalin model (40 mg/kg intragastric), 41.0 ± 10.7 s. The “Reaction time for Phase II” value in the data set with rat formalin model (20 mg/kg intragastric) came to 64.5 ± 19.5 s; in the data set on rat formalin model (40 mg/kg intragastric), 46.5 ± 16.0 s.

For `[2H]C([2H])([2H])Oc1cc2c(cc1OC)CCN1Cc3c(ccc(OC)c3OC)C[C@@H]21` [Formula I3, (13a S)-3,9,10-trimethoxy-2-[(trideutero)-methoxy]-6,8,13,13a-tetrahydro-5H-isoquinolino[2,1-b]isoquinoline], the Analgesic percent in data set [2] (20 mg/kg intragastric) is 44.80%; in data set [2] (40 mg/kg intragastric) it was 68.67%. The “Reaction time for phase I” value in the data set with rat formalin model (20 mg/kg intragastric) came out at 79.6 ± 31.3 s; with rat formalin model (40 mg/kg intragastric), 45.1 ± 29.4 s. Moreover, the “Reaction time for Phase II” value in the data set on rat formalin model (20 mg/kg intragastric) stood at 126.3 ± 29.6 s; with rat formalin model (40 mg/kg intragastric) it was 72.3 ± 37.8 s.

Consider `[2H]C([2H])([2H])Oc1cc2c(cc1OC)[C@@H]1Cc3ccc(OC)c(OC)c3CN1CC2` [Formula I4, (13a S)-2,9,10-trimethoxy-3-[(trideutero)-methoxy]-6,8,13,13a-tetrahydro-5H-isoquinolino[2,1-b]isoquinoline], for which the “Reaction time for phase I” value in the data set on rat formalin model (20 mg/kg intragastric) amounted to 90.3 ± 29.0 s; with rat formalin model (40 mg/kg intragastric) it was 61.5 ± 36.6 s. The “Reaction time for Phase II” value with rat formalin model (20 mg/kg intragastric) was 151.2 ± 31.6 s; in the data set with rat formalin model (40 mg/kg intragastric) it was 74.3 ± 38.0 s.

On to `[2H]C([2H])([2H])Oc1cc2c(cc1OC)CCN1Cc3c(ccc(OC)c3OC([2H])([2H])[2H])C[C@@H]21` [Formula I5, (13a S)-3,10-dimethoxy-2,9-di-[(trideutero)-methoxy]-6,8,13,13a-tetrahydro-5H-isoquinolino[2,1-b]isoquinoline], for which the Analgesic percent in data set [2] (20 mg/kg intragastric) is 39.40%; in data set [2] (40 mg/kg intragastric) it was 67.56%. For the same compound, the “Reaction time for phase I” value worked out at 85.8 ± 28.0 s with rat formalin model (20 mg/kg intragastric) and 53.4 ± 23.5 s in the data set on rat formalin model (40 mg/kg intragastric). In addition, the “Reaction time for Phase II” value in the data set with rat formalin model (20 mg/kg intragastric) is 112.7 ± 29.2 s; in the data set on rat formalin model (40 mg/kg intragastric), 66.5 ± 27.6 s.
